Reference: patent US8748177B2, “Compositions for proliferation of cells and related methods” (The Hospital for Sick Children, priority 2008, dated 2014)
“Also recorded” adds a separate entry of the source. Counter-ions that a name gives are not always drawn.

Experiments:
human SKPs [1] = assay: In vitro sphere assay, human SKPs from foreskin; format: cell-based; details: treated for seven days, Hoechst stain, compared to vehicle control
Procedure: (§1) FIG. 7 is a schematic illustration of the in vitro sphere assay. SKPs were isolated from mouse back, whisker and human foreskin and allowed to grow in spheres. After 2-3 passages, spheres were dissociated and 3000 cells were plated in each well of a 96-well plate. Cells were then treated in triplicate with different concentrations of drugs or only with vehicle DMSO. Drugs were applied again on day 3 and the number of spheres was analyzed on day 7.
as §1, with “SKPs” for “FIG. 7 is a schematic illustration of the in vitro sphere assay. SKPs”, “whisker,” for “whisker”, “96 well” for “96-well”, “or” for “or only”, “(DMSO) only.” for “DMSO.”, “and” for “and the”
Sphere size is […] with, and is thus a measure of, cell proliferation. SKPs were isolated from human foreskin and allowed to grow in spheres. After 2-3 passages, spheres were dissociated and 3000 cells were plated in each well of a 96 well plate. Cells were then treated in triplicate with (a) 100 nM of a single drug, (b) a combination of drugs in which each drug is present at a concentration of 100 nM, or (c) vehicle (DMSO). Drugs were applied again on day 3. To assess how well cells proliferate within the sphere, the size of spheres was analyzed on day 7. […]

human SKPs [2] = assay: Dose-response curves for proliferation of human SKPs in presence of EGF and FGF2; format: cell-based; details: for proliferation of human SKPs: 100 nM, compared to cells grown in the absence of the agent
Procedure: The proliferative effects of MG 624 on SKPs and neuroblastoma tumor initiating cells have also been studied in detail. Dose response curves for proliferation of human SKPs and neuroblastoma tumor initiating cells in response to MG 624 were generated in the presence of EGF and FGF2. At 200 nM MG 624, SKP cell proliferation is enhanced (FIG. 5).
To characterize enhancement of proliferation brought about by the agents identified above, dose-response curves for MG624, GSK3β, pramoxine, kaempferol, and alprostadil in presence of EGF and FGF2 were generated (FIGS. 6A-6E).

C57BL/6 mice = assay: Topical application to depilated dorsal skin: hair length, dermal thickness, anagen follicles, follicle density; format: in vivo, mouse; details: for hair length distribution histogram relative to control group: day 23, topical once daily; for anagen hair cycle (anagen hair follicles by morphology) / follicle density (number of follicles per mm): topical once daily for 3 weeks
Procedure: We tested compounds to determine whether their topical application could induce anagen hair cycle and follicle density. Briefly, seven-week old C57BL/6 mice were used. […] Mice were induced to enter anagen phase by being depilated in the dorsal region. Compounds ([…]) were topically applied onto the dorsal skin once daily for 3 weeks. Three mice were used for each compound group. Approximately 30 hairs from each mouse were plucked at specific days (day 16, day 19, and day 23) and the hair length was measured. Additionally, skin samples for cryosectioning were obtained from the treated dorsal region of each mouse.
All compounds were resuspended in vehicle solution (1.2 propanediol:EtOH:H20 (40:20:40)). Compound concentrations were as follows: alprostadil 40 μg/mL; kaempferol 28.6 μg/mL; pramoxine 329.8 μg/mL; MG 624 45.13 μg/mL. Also tested was Gold Bond topical anesthetic cream. Latanoprost (150 μg/mL) was used as a positive control and AKT inhibitor A443654 (100 μM) was used as a negative control.
FIG. 19 is a series of photomicrographs and graphs showing that topical application of the indicated compounds induces dermal thickness. Dorsal skin of animals topically treated with compounds described above, then isolated, cryosectioned and stained with hematoxylin and eosin. Dermal thickness was manually measured randomly through the slices. A mean of three measurements through the slice were performed and about 20-30 slices were analyzed for each mouse within each compound group.
FIG. 20 is a series of photomicrographs and graphs showing that alprostadil, kaempferol, pramoxine, or MG 624 induces anagen hair cycle and follicle density. The density is expressed as number of follicles per mm whereas the anagen hair follicles are determined by morphology.

Sox2-EGFP mice = assay: Single agent topical application, hair length in shaved Sox2-EGFP mice; format: in vivo, mouse; details: for hair length distribution histogram relative to control group: day 23, classes of 200 μm; for hair length: topical daily, days 16, 19 and 23, compared to control mice
Procedure: Sox2-EGFP mice, 7-8 weeks old, were shaved on the dorsal back to synchronize the hair cycle, and kaempferol (Kae) or alprostadil (Alp) was topically applied daily. Control mice were treated with vehicle only. At days 16, 19, and 23, about 30-40 hairs were plucked from each mouse, and their length was measured. Three or four mice were used in each group. […] Hair length promoted by the compounds on day 23 is shown in distribution histograms relative to the control group. Hair length was binned in classes of 200 μm, and each class was expressed as a percentage of total hair population.

[3] = tested on: xenograft neuroblastoma tumors; assay: Tumor formation, xenograft neuroblastoma tumors in vivo; design: species or system human; details: FIG. 4C

Structure (SMILES)	size of human SKP spheres (human SKPs [1])	proliferation of human SKPs (human SKPs [2])	hair length distribution histogram relative to control group (C57BL/6 mice)	anagen hair cycle (anagen hair follicles by morphology) (C57BL/6 mice)	follicle density (number of follicles per mm) (C57BL/6 mice)	hair length distribution histogram relative to control group (Sox2-EGFP mice)	hair length (Sox2-EGFP mice)	SKP proliferation (human SKPs [2]; 200 nM)	tumor formation [3]
CCCCC[C@H](O)/C=C/[C@H]1[C@H](O)CC(=O)[C@@H]1CCCCCCC(=O)O [Alprostadil, alprostadil]	increase the size of human SKP spheres	enhanced proliferation	shift versus longer hair length	induces	induces	shift to longer hair lengths	increase in hair length		
O=c1c(O)c(-c2ccc(O)cc2)oc2cc(O)cc(O)c12 [Kaempferol]	increase the size of human SKP spheres	enhanced proliferation	shift versus longer hair length	induces	induces	shift to longer hair lengths	increase in hair length		
CC[N+](CC)(CC)CCOc1ccc(/C=C/c2ccccc2)cc1.[I-] [MG 624]		enhanced proliferation		induces	induces			enhanced; also recorded: increased	
CCCCOc1ccc(OCCCN2CCOCC2)cc1 [Pramoxine hydrochloride, Pramoxine]		enhanced proliferation		induces	induces				
CC[C@]1(O)C[C@@H]2CN(CCc3c([nH]c4ccccc34)[C@@](C(=O)OC)(c3cc4c(cc3OC)N(C)[C@H]3[C@@](O)(C(=O)OC)[C@H](OC(C)=O)[C@]5(CC)C=CCN6CC[C@]43[C@@H]65)C2)C1 [vinblastine]									inhibition of tumor formation
